In paper PMC2990756, “Quantitative High-Throughput Screening Identifies 8-Hydroxyquinolines as Cell-Active Histone Demethylase Inhibitors” (PLoS ONE, 2010):
Read-outs that look alike come from different tables or passages of the source.

Columns and labels:
Type in all cases: biochemical
[1] = molecular target: T1, formaldehyde dehydrogenase (FDH) (Pseudomonas putida, UniProt P46154); assay: FDH coupling enzyme counterscreen
T1 construct: purchased Sigma-Aldrich
Excerpt: Dimethylsulfoxide certified ACS grade (DMSO) was from Fisher, Inc. HEPES buffer was obtained from Gibco. […] Black solid-bottom 1,536-well assay plates were from Greiner Bio-One (Monroe, NC).

JMJD2E = molecular target: T2, JMJD2E (Homo sapiens, UniProt B2RXH2); assay: JMJD2E FDH-coupled assay under low and high iron conditions (iron chelation profile); set-up: The catalytic domain of human JMJD2E (residues 1–337); His6 (N); made in house; host or cells: E. coli
T2 sequence (B2RXH2 1-337): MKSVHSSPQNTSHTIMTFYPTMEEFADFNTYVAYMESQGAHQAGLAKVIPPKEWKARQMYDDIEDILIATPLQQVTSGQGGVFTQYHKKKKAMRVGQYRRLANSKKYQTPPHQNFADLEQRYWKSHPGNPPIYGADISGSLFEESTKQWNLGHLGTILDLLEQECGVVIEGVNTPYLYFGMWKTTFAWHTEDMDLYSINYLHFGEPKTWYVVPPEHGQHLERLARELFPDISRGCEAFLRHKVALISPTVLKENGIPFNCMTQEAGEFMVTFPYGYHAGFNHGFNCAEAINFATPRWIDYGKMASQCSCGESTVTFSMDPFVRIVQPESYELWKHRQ
Description: The prioritized compounds were also evaluated in the screening assay using two different ferrous ion concentrations (termed high iron and low iron, respectively), in order to assess their propensity for iron chelation.
The ratio of IC50 values under high iron to low iron was calculated for each compound.

JMJD2E (KDM4E) = molecular target: T3, JMJD2E (KDM4E) (Homo sapiens, UniProt B2RXH2); assay: qHTS fluorescence FDH-coupled JMJD2E demethylase assay
T3 construct: The catalytic domain of human JMJD2E (residues 1–337); His6 (N); made in house; host or cells: E. coli
T3 sequence (B2RXH2 1-337): T2 sequence (B2RXH2 1-337)

[2] = Table S1, FDH counterscreen, unit not in table, from Figure 2, read-out: qHTS Data: jmjd2e fdh IC50
[3] = Table S1, high iron, head says 20 µM FAS, unit not in table, from Figure 2, read-out: qHTS Data: jmjd2e fas20um IC50
[4] = Table S1, low iron 2.5 µM FAS, unit not in table, from Figure 2, read-out: qHTS Data: jmjd2e fas2.5um IC50
[5] = Table S1, unit not in table, from Figure 2, read-out: qHTS Data: jmjd2e IC50

T1 sequence (P46154 whole entry): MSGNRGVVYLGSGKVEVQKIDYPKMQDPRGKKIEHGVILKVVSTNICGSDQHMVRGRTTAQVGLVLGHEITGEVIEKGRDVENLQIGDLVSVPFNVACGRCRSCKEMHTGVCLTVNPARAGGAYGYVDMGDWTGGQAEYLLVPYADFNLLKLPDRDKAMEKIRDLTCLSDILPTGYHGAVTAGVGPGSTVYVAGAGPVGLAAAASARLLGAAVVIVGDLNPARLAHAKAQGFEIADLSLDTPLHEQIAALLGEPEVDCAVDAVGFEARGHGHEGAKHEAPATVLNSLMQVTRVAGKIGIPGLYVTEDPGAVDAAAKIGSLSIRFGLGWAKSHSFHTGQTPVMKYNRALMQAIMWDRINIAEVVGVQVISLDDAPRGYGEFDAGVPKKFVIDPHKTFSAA

Compound | qHTS Data: jmjd2e fdh CurveClass ([1]; Table S1, FDH counterscreen) | IC50 [1, 2] [µM] | IC50 (JMJD2E; [3]) [µM] | IC50 (JMJD2E; [4]) [µM] | IC50 (JMJD2E (KDM4E); [5]) [µM] | qHTS Data: jmjd2e fas20um CurveClass (JMJD2E; Table S1, high iron) | qHTS Data: jmjd2e fas2.5um Curve comment (JMJD2E; Table S1, low iron 2.5 µM FAS) | IC50 ([1]; Figure 2, 0.025 U/mL FDH, 10 µM formaldehyde, read-out: IC50 values in μM, FDH) [µM] | IC50 (JMJD2E; Figure 2, high iron 25 µM Fe(II), read-out: IC50 values in μM, High Fe) [µM] | IC50 (JMJD2E (KDM4E); Figure 2, 100 nM JMJD2E, 10 µM FAS, read-out: IC50 values in μM, qHTS) [µM]
N#C/C(=C\c1cc(O)c(O)c(O)c1)C(N)=O [compound 26725225] | Poor quality curve | 39.8 | 8.91 | 2.24 | 1 |  |  |  |  | 
O=C(CSc1ncn[nH]1)CSc1ncn[nH]1 [compound 24783149] |  | 1 |  | 6.31 | 3.55 | Inactive |  |  |  | 
C[C@H](N)[C@H](O)c1ccc(O)c(O)c1 [compound 11112447] | Inactive |  | 2.24 | 3.98 | 4.47 |  |  |  |  | 
Cl.NCCc1cc(O)c(O)cc1O [compound 26748180] | Poor quality curve |  | 7.94 | 2.51 | 6.31 |  |  |  |  | 
COc1ccc(-n2c(C)cc(/C=N/Nc3nnc(C)n3N)c2C)cc1.Cl [compound 22416865] | Poor quality curve | 28.2 | 5.01 | 5.01 | 0.71 |  |  |  |  | 
C=CCc1c(C)nc(C)nc1N/N=C/c1ccccc1O [compound 14741635] | Inactive |  |  | 3.16 | 3.16 | Inactive |  |  |  | 
O=C1C=C(O)c2cccc(O)c2C1=O [compound 26724134] | Inactive |  | 19.9 | 14.1 | 7.94 |  | Poor quality curve |  |  | 
COc1cc(/C=N/Nc2nncn2N)ccc1OCc1c(C)no[n+]1[O-] [compound 26657989] | Inactive |  |  | 4.47 | 0.5 | Inactive |  |  |  | 
O=C(O)c1cc(O)c(O)c(O)c1 [compound 26747307] | Poor quality curve | 31.6 | 17.8 | 0.13 | 0.35 |  |  |  |  | 
O=C1CC(Sc2ncn[nH]2)C(=O)N1c1ccccc1 (centres unmarked) [compound 14730480] |  | 0.32 |  | 2.51 | 2.24 | Inactive |  |  |  | 
N[C@H](Cc1ccc(O)c(O)c1)C(=O)O [compound 50106235] | Inactive |  | 12.6 | 12.6 | 17.8 |  |  |  |  | 
O=C(CC1Sc2ncnn2C1=O)Nc1ccc(Br)cc1 (centres unmarked) [compound 7966079] |  | 0.28 | 1 | 2 | 2.24 |  |  |  |  | 
O=C(O)c1cccc(C(=O)O)n1 [compound 863941] | Inactive |  | 7.94 | 2.82 | 8.91 |  |  |  |  | 
CNCCc1ccc(O)c(O)c1.Cl [compound 50106160] | Poor quality curve | 3.16 | 11.2 | 4.47 | 14.1 |  |  |  |  | 
CC(C)c1ccc(N2C(=O)CC(Sc3ncn[nH]3)C2=O)cc1 (centres unmarked) [compound 14726804] |  | 0.25 | 19.9 | 2.51 | 1.58 | Poor quality curve |  |  |  | 
Cc1ccc(N2C(=O)CC(Sc3ncn[nH]3)C2=O)cc1C (centres unmarked) [compound 14726720] |  | 0.22 |  | 1.41 | 1.26 | Inactive |  |  |  | 
CCN(CC)c1ccc(N=Cc2c(C)[nH]c3ccccc23)cc1 [compound 22412852] | Inactive |  | 7.94 | 12.6 | 0.79 |  | Poor quality curve |  |  | 
CCOC(=O)c1ccc(CC(=O)c2ccc(O)c(O)c2O)o1 [compound 24797852] | Inactive |  | 10 | 1.41 | 3.16 |  |  |  |  | 
COC(=O)c1ccc(=O)c2nc3/c(=C/O)c(O)cc(=O)c3[nH]c12 [compound 26732584] | Inactive |  |  | 2.24 | 8.91 | Inconclusive |  |  |  | 
C/C(=N\Nc1ccc2nncn2n1)c1ccccn1 [compound 26664046] | Poor quality curve | 35.5 | 8.91 | 8.91 | 10 |  |  |  |  | 

Compound | qHTS Data: jmjd2e fdh CurveClass ([1]; Table S1, FDH counterscreen) | IC50 [1, 2] [µM] | IC50 (JMJD2E; [3]) [µM] | IC50 (JMJD2E; [4]) [µM] | IC50 (JMJD2E (KDM4E); [5]) [µM] | qHTS Data: jmjd2e fas20um CurveClass (JMJD2E; Table S1, high iron) | qHTS Data: jmjd2e fas2.5um Curve comment (JMJD2E; Table S1, low iron 2.5 µM FAS) | IC50 ([1]; Figure 2, 0.025 U/mL FDH, 10 µM formaldehyde, read-out: IC50 values in μM, FDH) [µM] | IC50 (JMJD2E; Figure 2, high iron 25 µM Fe(II), read-out: IC50 values in μM, High Fe) [µM] | IC50 (JMJD2E (KDM4E); Figure 2, 100 nM JMJD2E, 10 µM FAS, read-out: IC50 values in μM, qHTS) [µM]
Oc1ccc(NCc2ccccc2OCc2ccccc2F)cc1 [SID 17385881] |  |  |  |  |  |  |  | > 57 | 14.1 | 5
Cc1ccnc(NC(c2cccnc2)c2ccc3cccnc3c2O)c1 (centres unmarked) [compound 24794739] | Poor quality curve | 0.03 | 14.1 | 11.2 | 5.62 |  |  |  |  | 
COc1ccc(NC(=O)CC2Sc3ncnn3C2=O)cc1 (centres unmarked) [compound 7968088] |  | 0.28 | 12.6 | 1.78 | 2 |  |  |  |  | 
CCN1/C(=C\c2ccc3ccccc3[n+]2CC)Sc2cc(C)ccc21.[I-] [compound 24782097] | Poor quality curve | 22.4 | 14.1 | 17.8 | 1.41 | Poor quality curve | Poor quality curve |  |  | 
CN[C@@H](C)[C@H](O)c1ccccc1.CN[C@@H](C)[C@H](O)c1ccccc1.O=S(=O)(O)O [compound 50106282] | Poor quality curve | 12.6 | 7.94 | 2.24 | 3.55 | 1.2 |  |  |  | 
O=c1c(-c2cc(O)c(O)c(O)c2)coc2cc(O)c(O)c(O)c12 [compound 26749510] |  | 3.98 | 14.1 | 1 | 2.82 |  |  |  |  | 
CNC[C@H](O)c1ccc(O)c(O)c1 [compound 26754418] | Inconclusive |  | 12.6 | 5.01 | 7.08 |  |  |  |  | 
CN(C)c1ccnc(C(=O)O)c1 [compound 24815512] | Inactive |  | 15.8 |  | 2.82 | Poor quality curve | Inactive |  |  | 
CCOc1cccc(C(=O)c2ccc(O)c(O)c2O)c1 [compound 26749554] | Inactive |  | 8.91 | 4.47 | 10 |  |  |  |  | 
Oc1cc2c(cc1O)C1c3ccc(O)c(O)c3OCC1(O)C2 (centres unmarked) [compound 26749470] | Inactive |  | 14.1 | 1.58 | 0.71 | Poor quality curve |  |  |  | 
CN1CC[C@]2(C)c3cc(O)ccc3N(C)[C@@H]12 [compound 11112885] | Inconclusive |  | 7.08 | 8.91 | 2.24 |  |  |  |  | 
O=c1cc2c(=O)oc3cc(O)c(O)oc3c2c(O)c1O [compound 26666750] | Inactive |  | 15.8 | 1.78 | 3.98 |  |  |  |  | 
O=C1C=CC2=C3c4cc(O)c(O)cc4CC3(O)COC2=C1O (centres unmarked) [compound 26749676] |  | 11.2 | 17.8 | 2 | 6.31 | Poor quality curve |  |  |  | 
O=Cc1ccc(O)c(O)c1 [compound 8139931] | Inactive |  |  | 3.55 | 4.47 | Inactive |  |  |  | 
O=c1cnnc(N/N=C/c2ccccn2)[nH]1 [compound 26726276] | Inactive |  |  | 6.31 | 3.55 | Inactive |  |  |  | 
Cc1ccc(O)c(N=NC2=C(O)CC(C)(C)CC2=O)c1 [compound 22414549] | Inactive |  |  | 5.62 | 0.56 | Inactive |  |  |  | 
Cc1cc(C(=O)NNC(=S)Nc2ccccc2)nn1C [compound 24796479] | Inactive |  | 7.94 | 7.08 | 8.91 |  |  |  |  | 
O=C(NC(=S)NNC(=O)c1ccccc1O)c1ccco1 [compound 17504924] | Poor quality curve | 2.82 |  | 3.55 | 7.08 | Inactive |  |  |  | 
O=C(CSc1ncn[nH]1)c1cccc([N+](=O)[O-])c1 [compound 17510781] |  | 0.89 | 14.1 | 10 | 7.94 |  |  |  |  | 
